Assay [1] relates to human umbilical vein endothelial cells. Kind of assay: Human Umbilical Vein Endothelial Cell (HUVEC) Proliferation Assay. It counts as cell-based. Conditions: 96 h, four days incubation, Sulphorhodamine B staining. The method, then: The compounds of Formula I are useful for treating cell proliferative disorders concerning angiogenesis and have been evaluated in a human umbilical vein endothelial cell in vitro assay. The assay described below is used to determine the anti-proliferative effects of the invention compounds on human umbilical vein endothelial cells, and the results are shown in Table 7.
Human Umbilical Vein Endothelial Cell (HUVEC) Proliferation Assay
Ninety-six well tissue culture plates are seeded with 100 µL of cells in all wells of rows A->G with row H remaining empty as a blank. HUVEC (Clonetics, San Diego, CA) are grown in endothelial growth medium (EGM media, Clonetics), containing 2% fetal bovine serum. The cell seed density for HUVEC cells is 20,000 per mL. C6 cells (ATCC Cat. No. CCL-107) are seeded at 6000 per mL in F10 medium (nutrient mixture Hemes) supplemented with 15% horse serum, 2.5% fetal bovine serum, and 6.0 mL 200 mM Glutamine per 600 mL medium. A90 cells (Suny, Buffalo, NY) are also seeded at 6000 per mL, but they are grown in RPMI 1640 (Roswell Park Memorial Institute) plus 10% fetal bovine serum. Unless noted otherwise, tissue culture media and components are from GIBCO. The cells are allowed to incubate at 37°C, 5% CO2, and 100% relative humidity for 16-24 hours.
Invention compounds are prepared by dissolving them in DMSO at a concentration of 5 mM, followed by dilution to 50 µM in EGM media. One hundred microliters of the compounds are applied to duplicate wells in column 1 of the previously prepared cell plates. Column 1 row H receives 100 µL of EGM media. The compounds in column 1 are diluted across the plates using serial twofold dilutions.
The plates are incubated as above for an additional four days before being stained with Sulphorhodamine B. Staining is performed as follows: The media is removed from the plates, and the cells are fixed using 10% trichloroacetic acid for 30 minutes at 4°C. Following fixation, the plates are washed five times with distilled water after which 100 µL of Sulphorhodamine B is added to each well. Sulphorhodamine B is dissolved in 1% acetic acid to a concentration of .075%. Following staining, excess stain is removed from the wells, and the plates are washed four times with 1% acetic acid. The plates are allowed to air dry before the bound dye is solubilized in 100 µL of 10 mM unbuffered TRIS base. Absorbance is measured on a 96 well plate reader at […] using a reference filter wavelength of 630 nm. […] Sulphorhodamine B and TRIS are from Sigma Chemical Company. Acetic acid and trichloroacetic acid are from Mallinckrodt AR.
In general terms: Sulforhodamine B stains cellular protein and so reports cell mass.

For assay [2], the target named is T1, FGF-1 (flg) receptor tyrosine kinase (Homo sapiens, UniProt P11362).
T1 construct: amplify a fragment of DNA that codes for the intracellular tyrosine kinase domain; made in house; host or cells: SF9 insect cells (baculovirus); crude cell lysate used
T1 sequence (P11362 478-767 limits assumed): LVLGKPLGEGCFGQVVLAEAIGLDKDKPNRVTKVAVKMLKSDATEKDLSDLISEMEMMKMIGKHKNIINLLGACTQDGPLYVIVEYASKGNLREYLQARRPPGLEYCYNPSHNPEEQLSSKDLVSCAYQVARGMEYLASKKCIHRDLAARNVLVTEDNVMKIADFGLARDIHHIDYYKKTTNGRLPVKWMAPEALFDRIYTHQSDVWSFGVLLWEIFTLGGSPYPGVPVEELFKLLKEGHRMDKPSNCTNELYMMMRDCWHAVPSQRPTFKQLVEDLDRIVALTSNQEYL
Description: FGF Receptor Tyrosine Kinase Assay. The class given is biochemical. Conditions: glutamate-tyrosine co-polymer substrate, 50 µM ATP.

In assay [3] the target is T2, PDGF-β receptor tyrosine kinase (Mus musculus, UniProt P05622).
T2 construct: amplify a fragment of DNA that codes for the intracellular tyrosine kinase domain; made in house; host or cells: SF9 insect cells (baculovirus); crude cell lysate used
T2 sequence (P05622 599-961 limits assumed): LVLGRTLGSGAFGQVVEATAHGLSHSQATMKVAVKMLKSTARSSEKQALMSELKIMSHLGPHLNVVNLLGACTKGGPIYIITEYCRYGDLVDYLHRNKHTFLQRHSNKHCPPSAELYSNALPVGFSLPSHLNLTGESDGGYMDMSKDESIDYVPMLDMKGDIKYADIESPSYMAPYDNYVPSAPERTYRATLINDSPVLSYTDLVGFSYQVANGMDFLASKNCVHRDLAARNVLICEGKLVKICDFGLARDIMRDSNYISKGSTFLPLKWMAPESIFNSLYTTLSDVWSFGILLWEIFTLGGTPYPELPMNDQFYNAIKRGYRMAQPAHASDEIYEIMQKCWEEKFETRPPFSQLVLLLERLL
Kind of assay: PDGF Receptor Tyrosine Kinase Assay. It counts as biochemical. The conditions noted are these: glutamate-tyrosine co-polymer substrate, 50 µM ATP. The source says: PDGF and FGF Receptor Tyrosine Kinase Assays
Full-length cDNAs for the mouse PDGF-β and human FGF-1 (flg) receptor tyrosine kinases were obtained from J. Escobedo and prepared as described in J. Biol. Chem., 1991;262:1482-1487. PCR primers were designed to amplify a fragment of DNA that codes for the intracellular tyrosine kinase domain. The fragment was inserted into a baculovirus vector, cotransfected with AcMNPV DNA, and the recombinant virus isolated. SF9 insect cells were infected with the virus to overexpress the protein, and the cell lysate was used for the assay. Assays were performed in 96-well plates (100 µL/incubation/well), and conditions were optimized to measure the incorporation of ^32P from γ^32P-ATP into a glutamate-tyrosine co-polymer substrate. Briefly, to each well was added 82.5 µL of incubation buffer containing 25 mM Hepes (pH 7.0), 150 mM NaCl, 0.1% Triton X-100, 0.2 mM PMSF, 0.2 mM Na3VO4, 10 mM MnCl2, and 750 µg/mL of Poly (4:1) glutamate-tyrosine followed by […] of inhibitor and 5 µL of enzyme lysate (7.5 µg/µL FGF-TK or 6.0 µg/µL PDGF-TK) to initiate the reaction. Following a 10 minute incubation at 25°C, […] of γ^32P-ATP (0.4 µCi plus 50 µM ATP) was added to each well, and samples were incubated for an additional 10 minutes at 25°C. The reaction was terminated by the addition of 100 µL of 30% trichloroacetic acid (TCA) containing 20 mM sodium pyrophosphate and precipitation of material onto glass fiber mats (Wallac). Filters were washed three times with 15% TCA containing 100 mM sodium pyrophosphate, and the radioactivity retained on the filters counted in a Wallac 1250 Betaplate reader. Nonspecific activity was defined as radioactivity retained on the filters following incubation of samples with buffer alone (no enzyme). Specific enzymatic activity (enzyme plus buffer) was defined as total activity minus nonspecific activity. […]

Here are results for one compound from EP1801112A1, “Bicyclic pyrimidines and bicyclic 3,4-dihydropyrimidines as inhibitors of cellular proliferation” (Warner-Lambert Company LLC, priority 1998, dated 1999).

By IC50 is commonly meant the concentration needed to halve the response being measured. Low values mean greater potency, high ones weaker potency.

Consider `CCN(CC)CCCCNc1ncc2c(n1)N(CC)C(=O)N(c1cc(OC)cc(OC)c1)C2` [Example 53, 7-(4-Diethylamino-butylamino)-3-(3,5-dimethoxy-phenyl)-1-ethyl-3,4-dihydro-pyrimido[4,5-d]pyrimidin-2(1H)-one], for which the IC50 in assay [1] came to 192 nM; in assay [2], 0.06 µM; in assay [3], 5 µM.
